Reference: patent US8541418B2, “Inhibitors of polo-like kinase” (Elan Pharmaceutical, Inc., priority 2009, dated 2013)
Read-outs that look alike come from different tables or passages of the source.

Assays:
Type in all cases: biochemical
PLK2 = PLK2 (Homo sapiens, UniProt Q9NYY3); assay: PLK TR-FRET peptide assay, PLK2; conditions: read-out: Plk2 IC50
PLK1 = PLK1 (Homo sapiens, UniProt P53350); assay: PLK TR-FRET peptide assay, PLK1
PLK3 = PLK3 (Homo sapiens, UniProt Q9H4B4); assay: PLK TR-FRET peptide assay, PLK3
[1] = GST-PLK3, 15 min reaction, read-out: Plk3 IC50
[2] = PLK TR-FRET peptide assay, GST-PLK2, 60 min reaction

Chain of PLK2 (Q9NYY3 whole entry): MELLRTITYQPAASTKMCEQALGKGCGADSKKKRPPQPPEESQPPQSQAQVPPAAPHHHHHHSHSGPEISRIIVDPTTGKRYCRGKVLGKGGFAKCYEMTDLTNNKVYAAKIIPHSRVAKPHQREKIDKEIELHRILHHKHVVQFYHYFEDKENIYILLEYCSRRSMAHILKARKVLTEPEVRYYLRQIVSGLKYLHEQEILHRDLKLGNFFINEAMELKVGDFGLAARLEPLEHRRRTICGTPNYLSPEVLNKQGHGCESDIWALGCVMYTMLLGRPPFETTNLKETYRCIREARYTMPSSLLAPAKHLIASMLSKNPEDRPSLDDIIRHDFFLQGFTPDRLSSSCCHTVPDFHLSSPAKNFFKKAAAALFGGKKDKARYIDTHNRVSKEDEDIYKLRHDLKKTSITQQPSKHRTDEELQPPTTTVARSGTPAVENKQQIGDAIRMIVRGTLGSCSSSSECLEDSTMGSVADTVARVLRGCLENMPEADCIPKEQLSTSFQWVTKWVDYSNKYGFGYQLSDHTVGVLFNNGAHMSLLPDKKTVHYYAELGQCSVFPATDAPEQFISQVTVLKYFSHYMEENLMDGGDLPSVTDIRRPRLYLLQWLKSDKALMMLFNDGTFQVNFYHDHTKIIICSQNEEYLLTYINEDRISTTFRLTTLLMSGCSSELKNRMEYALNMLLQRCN
Chain of PLK3 (Q9H4B4 whole entry): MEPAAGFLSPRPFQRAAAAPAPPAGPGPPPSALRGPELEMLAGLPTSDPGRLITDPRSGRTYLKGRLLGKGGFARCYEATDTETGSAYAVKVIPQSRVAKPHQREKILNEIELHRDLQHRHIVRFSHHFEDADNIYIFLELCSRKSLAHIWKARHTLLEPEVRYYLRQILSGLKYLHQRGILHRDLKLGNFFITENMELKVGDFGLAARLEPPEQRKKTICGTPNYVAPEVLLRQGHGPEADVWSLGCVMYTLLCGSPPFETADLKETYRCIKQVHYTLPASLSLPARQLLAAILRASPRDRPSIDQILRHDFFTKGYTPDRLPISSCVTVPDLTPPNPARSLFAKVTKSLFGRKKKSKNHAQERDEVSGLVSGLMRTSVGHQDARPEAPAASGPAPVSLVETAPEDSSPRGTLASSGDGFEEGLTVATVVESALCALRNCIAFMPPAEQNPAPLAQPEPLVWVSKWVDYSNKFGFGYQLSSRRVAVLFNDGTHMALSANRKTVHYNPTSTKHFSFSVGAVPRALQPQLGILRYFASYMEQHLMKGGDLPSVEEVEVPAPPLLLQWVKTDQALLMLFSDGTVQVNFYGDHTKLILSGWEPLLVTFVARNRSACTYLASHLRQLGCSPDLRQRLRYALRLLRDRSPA
Chain of PLK1 (P53350 whole entry): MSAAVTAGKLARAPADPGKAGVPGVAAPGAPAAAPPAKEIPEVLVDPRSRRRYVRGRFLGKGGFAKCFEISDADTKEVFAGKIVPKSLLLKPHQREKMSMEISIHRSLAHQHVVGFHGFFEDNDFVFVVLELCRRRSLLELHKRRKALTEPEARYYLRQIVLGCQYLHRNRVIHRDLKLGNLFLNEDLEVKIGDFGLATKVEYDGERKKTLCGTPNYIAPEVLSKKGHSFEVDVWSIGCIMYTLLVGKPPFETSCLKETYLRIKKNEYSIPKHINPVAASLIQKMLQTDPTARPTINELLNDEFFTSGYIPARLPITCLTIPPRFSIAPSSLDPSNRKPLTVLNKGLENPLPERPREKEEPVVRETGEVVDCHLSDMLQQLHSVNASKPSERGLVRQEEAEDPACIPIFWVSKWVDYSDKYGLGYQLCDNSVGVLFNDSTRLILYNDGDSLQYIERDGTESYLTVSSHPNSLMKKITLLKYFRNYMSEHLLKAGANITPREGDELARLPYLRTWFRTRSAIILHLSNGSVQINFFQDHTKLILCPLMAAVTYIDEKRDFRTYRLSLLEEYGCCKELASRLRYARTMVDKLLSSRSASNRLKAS

Compound	IC50 (PLK2) [nM]	IC50 (PLK1; GST-PLK1, 60 min reaction) [µM]	IC50 (PLK3; [1]) [µM]	IC50 (PLK2; [2]) [nM]	IC50 (PLK2; PLK TR-FRET peptide assay, GST-PLK2) [nM]	IC50 (PLK1; GST-PLK1) [µM]	IC50 (PLK3; GST-PLK3, read-out: Plk3 IC50) [µM]
7-perdeuteroethyl-8-perdeuteroisopropyl-5-trideuteromethyl-2-(3-phenylpyridin-4-yl)-7,8-dihydropteridin-6(5H)-one [Example 146]	< 1000	< 1	< 1	–	–	–	–
[2H]C([2H])([2H])N1C(=O)C(C([2H])([2H])C([2H])([2H])[2H])N(C([2H])(C([2H])([2H])[2H])C([2H])([2H])[2H])c2nc(-n3ccnc3-c3ccc(F)cc3)ncc21 (racemic) [Example 162, 7-perdeuteroethyl-2-(2-(4-fluorophenyl)-1H-imidazol-1-yl)-8-perdeuteroisopropyl-5-trideuteromethyl-7,8-dihydropteridin-6(5H)-one]	–	1 to 10	1 to 10	< 1000	–	–	–
[2H]C([2H])([2H])N1C(=O)C(C([2H])([2H])C([2H])([2H])[2H])N(C([2H])(C([2H])([2H])[2H])C([2H])([2H])[2H])c2nc(-n3ccnc3-c3cc(F)cc(F)c3)ncc21 (racemic) [Example 163, 2-(2-(3,5-difluorophenyl)-1H-imidazol-1-yl)-7-perdeuteroethyl-8-perdeuteroisopropyl-5-trideuteromethyl-7,8-dihydropteridin-6(5H)-one]	–	< 1	10 to 50	< 1000	–	–	–
[2H]C([2H])([2H])N1C(=O)C(C([2H])([2H])C([2H])([2H])[2H])N(C([2H])(C([2H])([2H])[2H])C([2H])([2H])[2H])c2nc(-n3ccnc3-c3cccc(F)c3)ncc21 (racemic) [Example 180, 7-perdeuteroethyl-2-(2-(3-fluorophenyl)-1H-imidazol-1-yl)-8-perdeuteroisopropyl-5-trideuteromethyl-7,8-dihydropteridin-6(5H)-one]	–	< 1	1 to 10	< 1000	–	–	–
CCC12CCCCCN1c1nc(-n3ccnc3-c3ccccc3)ncc1N(C)C2=O (racemic) [Example 205, (+/−) 6a-ethyl-5-methyl-2-(2-phenyl-1H-imidazol-1-yl)-6a,7,8,9,10,11-hexahydroazepino[2,1-h]pteridin-6(5H)-one]	–	10 to 50	10 to 50	< 1000	–	–	–
CCC12CCCCCN1c1nc(-n3ncnc3-c3ccccc3)ncc1N(C)C2=O (racemic) [Example 216, (+/−) 6a-ethyl-5-methyl-2-(5-phenyl-1H-1,2,4-triazol-1-yl)-6a,7,8,9,10,11-hexahydroazepino[2,1-h]pteridin-6(5H)-one]	–	1 to 10	10 to 50	1000 to 10000	–	–	–
CCC12CCCCCN1c1nc(-n3ncnc3-c3cccc4ncccc34)ncc1N(C)C2=O (racemic) [Example 217, (+/−) 6a-ethyl-5-methyl-2-(5-(quinolin-5-yl)-1H-1,2,4-triazol-1-yl)-6a,7,8,9,10,11-hexahydroazepino[2,1-h]pteridin-6(5H)-one]	–	> 50	> 50	10000 to 50000	–	–	–
CCC12CCCCN1c1nc(-n3ccnc3-c3ccccc3)ncc1N(C)C2=O (racemic) [Example 238, (+/−) 6a-ethyl-5-methyl-2-(2-phenyl-1H-imidazol-1-yl)-7,8,9,10-tetrahydro-5H-pyrido[2,1-h]pteridin-6(6aH)-one]	–	1 to 10	10 to 50	< 1000	–	–	–
CCC12CCCCN1c1nc(-n3ccnc3-c3cccc(F)c3)ncc1N(C)C2=O (racemic) [Example 239, (+/−) 6a-ethyl-2-(2-(3-fluorophenyl)-1H-imidazol-1-yl)-5-methyl-7,8,9,10-tetrahydro-5H-pyrido[2,1-h]pteridin-6(6aH)-one]	–	1 to 10	10 to 50	< 1000	–	–	–
CCC12CCCCN1c1nc(-n3ccnc3-c3ccc(F)c(F)c3)ncc1N(C)C2=O (racemic) [Example 240, (+/−) 2-(2-(3,4-difluorophenyl)-1H-imidazol-1-yl)-6a-ethyl-5-methyl-7,8,9,10-tetrahydro-5H-pyrido[2,1-h]pteridin-6(6aH)-one]	–	1 to 10	10 to 50	< 1000	–	–	–
CCC12CCCCN1c1nc(-n3ccnc3-c3cc(F)cc(F)c3)ncc1N(C)C2=O (racemic) [Example 243, (+/−) 2-(2-(3,5-difluorophenyl)-1H-imidazol-1-yl)-6a-ethyl-5-methyl-7,8,9,10-tetrahydro-5H-pyrido[2,1-h]pteridin-6(6aH)-one]	–	10 to 50	> 50	< 1000	–	–	–
CCC12CCCCN1c1nc(-n3ccnc3-c3cccc(F)c3F)ncc1N(C)C2=O (racemic) [Example 248, (+/−) 2-(2-(2,3-difluorophenyl)-1H-imidazol-1-yl)-6a-ethyl-5-methyl-7,8,9,10-tetrahydro-5H-pyrido[2,1-h]pteridin-6(6aH)-one]	–	1 to 10	10 to 50	< 1000	–	–	–
CCC12CCCCN1c1nc(-n3ccnc3-c3cc(F)c(F)c(F)c3)ncc1N(C)C2=O (racemic) [Example 256, (+/−) 6a-ethyl-5-methyl-2-(2-(3,4,5-trifluorophenyl)-1H-imidazol-1-yl)-7,8,9,10-tetrahydro-5H-pyrido[2,1-h]pteridin-6(6aH)-one]	–	> 50	> 50	< 1000	–	–	–
CCC12CCCCN1c1nc(-n3ccnc3-c3ccc(F)cc3F)ncc1N(C)C2=O (racemic) [Example 257, (+/−) 2-(2-(2,4-difluorophenyl)-1H-imidazol-1-yl)-6a-ethyl-5-methyl-7,8,9,10-tetrahydro-5H-pyrido[2,1-h]pteridin-6(6aH)-one]	–	10 to 50	10 to 50	< 1000	–	–	–
CCC12CCCCN1c1nc(-n3ccnc3)ncc1N(C)C2=O (racemic) [Example 283, (+/−) 6a-ethyl-2-(1H-imidazol-1-yl)-5-methyl-7,8,9,10-tetrahydro-5H-pyrido[2,1-h]pteridin-6(6aH)-one]	–	> 50	> 50	10000 to 50000	–	–	–
CCC1C(=O)N(C)c2cnc(-c3cnsc3-c3ccc(F)cc3)nc2N1c1cccc(C#N)c1 (racemic) [Example 401, 3-(7-ethyl-2-(5-(4-fluorophenyl)isothiazol-4-yl)-5-methyl-6-oxo-6,7-dihydropteridin-8(5H)-yl)benzonitrile]	–	–	–	–	< 1000	1 to 10	1 to 10
CC[C@@H]1C(=O)N(C)c2cnc(-c3ccnc(NC)c3)nc2N1C1CCCC1 [Example 20, (R)-8-cyclopentyl-7-ethyl-5-methyl-2-(2-(methylamino)pyridin-4-yl)-7,8-dihydropteridin-6(5H)-one]	–	< 1	10 to 50	< 1000	–	–	–
CC[C@@H]1C(=O)N(C)c2cnc(-c3ccnc(N(C)C)c3)nc2N1C1CCCC1 [Example 21, (R)-8-cyclopentyl-2-(2-(dimethylamino)pyridin-4-yl)-7-ethyl-5-methyl-7,8-dihydropteridin-6(5H)-one]	–	< 1	10 to 50	< 1000	–	–	–
CC[C@@H]1C(=O)N(C)c2cnc(-c3ccncc3)nc2N1C(C)C [Example 23, (R)-7-ethyl-8-isopropyl-5-methyl-2-(pyridin-4-yl)-7,8-dihydropteridin-6(5H)-one]	–	1 to 10	> 50	< 1000	–	–	–
CC[C@@H]1C(=O)N(C)c2cnc(-n3ccnc3C)nc2N1C1CCCC1 [Example 27, (R)-8-cyclopentyl-7-ethyl-5-methyl-2-(2-methyl-1H-imidazol-1-yl)-7,8-dihydropteridin-6(5H)-one]	–	1 to 10	> 50	< 1000	–	–	–
CC[C@@H]1C(=O)Nc2cnc(-n3cccn3)nc2N1C1CCCC1 [Example 29, (R)-8-cyclopentyl-7-ethyl-2-(1H-pyrazol-1-yl)-7,8-dihydropteridin-6(5H)-one]	–	> 50	> 50	> 50000	–	–	–
CC[C@@H]1C(=O)N(C)c2cnc(-c3cn[nH]c3)nc2N1C(C)C [Example 31, (R)-7-ethyl-8-isopropyl-5-methyl-2-(1H-pyrazol-4-yl)-7,8-dihydropteridin-6(5H)-one]	–	1 to 10	> 50	< 1000	–	–	–
CC[C@@H]1C(=O)N(C)c2cnc(-c3cnc4[nH]ccc4c3)nc2N1C1CCCC1 [Example 32, (R)-8-cyclopentyl-7-ethyl-5-methyl-2-(1H-pyrrolo[2,3-b]pyridin-5-yl)-7,8-dihydropteridin-6(5H)-one]	–	< 1	1 to 10	< 1000	–	–	–
CN1C(=O)[C@H]2CCCN2c2nc(-n3ccnc3)ncc21 [Example 33, (R)-2-(1H-imidazol-1-yl)-5-methyl-6a,7,8,9-tetrahydropyrrolo[2,1-h]pteridin-6(5H)-one]	–	> 50	> 50	10000 to 50000	–	–	–
CN1C(=O)[C@H]2CCCN2c2nc(-c3ccncc3)ncc21 [Example 34, (R)-5-methyl-2-(pyridin-4-yl)-6a,7,8,9-tetrahydropyrrolo[2,1-h]pteridin-6(5H)-one]	–	> 50	> 50	> 50000	–	–	–
CC[C@@H]1C(=O)N(C)c2cnc(-n3cnc(-c4ccccc4)c3)nc2N1C1CCCC1 [Example 36, (R)-8-cyclopentyl-7-ethyl-5-methyl-2-(4-phenyl-1H-imidazol-1-yl)-7,8-dihydropteridin-6(5H)-one]	–	< 1	10 to 50	< 1000	–	–	–
CC[C@@H]1C(=O)N(C)c2cnc(-n3cccn3)nc2N1C1CCCC1 [Example 42, (R)-8-cyclopentyl-7-ethyl-5-methyl-2-(1H-pyrazol-1-yl)-7,8-dihydropteridin-6(5H)-one]	–	1 to 10	10 to 50	< 1000	–	–	–
CC[C@@H]1C(=O)N(C)c2cnc(-n3ccnc3)nc2N1C1CC(F)(F)C1 [Example 303, (R)-8-(3,3-difluorocyclobutyl)-7-ethyl-2-(1H-imidazol-1-yl)-5-methyl-7,8-dihydropteridin-6(5H)-one]	–	10 to 50	10 to 50	–	–	–	–
